Experimental data taken from ChEMBL document CHEMBL6109161, “Novel Pyrazolo[1,5-a]pyrimidine-3,5-diamines as nSMase2 Inhibitors” (ACS Med Chem Lett, 2025).

experiment: Inhibition of recombinant human neutral sphingomyelinase 2 using […] as substrate in presence of alkaline phosphatase, choline oxidase and horseradish peroxidase by fluorescence-based coupled assay

IC50 [nM] | Compound
80 | CN(C)c1cnn2ccc(NCc3ccccc3)nc12
40 | CN(C)c1cnn2ccc(NCc3ccc(C(F)(F)F)cc3)nc12
100 | CN(C)c1ccc(CNc2ccn3ncc(N(C)C)c3n2)cc1

Further lines, the molecule ahead of its results:

Compound | IC50 [nM]
CC1CCCN1c1ccn2ncc(N(C)C)c2n1 (stereo unspecified) | 70
CN(C)c1cnn2ccc(N3CCOCC3)nc12 | 60
COc1ccc(CNc2ccn3ncc(N(C)C)c3n2)cc1OC | 30
